Test results as given in patent US20110065796A1 (SHIRE LLC, priority 2009, published 2011).
Like-named read-outs stand apart in the source and are kept apart here.

What was measured:
[1] = Comparative bioavailability study in monkeys in the fasted or fed state; format: in vivo, cynomolgus monkey
Procedure: Five male cynomolgus monkeys were used. Food was withdrawn from animals in fasted groups from the evening of the day prior to dosing until approximately 4 hours after dosing.
The formulations were prepared on the day of dosing and administered orally as soon as practicable up to a maximum of 2 hours after formulation.
Blood samples (0.5 mL) were collected from all animals pre-dose and at 0.5, 1, 2, 3, 4, 6, 8 10, 12, 16 and 24 hours after dosing.
Following processing, the resultant plasma was frozen and analysed by a qualified method. Pharmacokinetic evaluation was performed using a validated pharmacokinetic software package.

[2] = Comparative pharmacokinetic screening study in the monkey (relative Cmax of guanfacine); conditions: oral gavage, monkey screening study
Procedure: Blood samples were taken on 4 sampling occasions at various times up to 6 hours after administration and submitted to analysis for the parent drug and prodrug using a qualified LC-MS-MS assay.

[3] = Pharmacokinetics in rat hepatic portal and tail veins after oral administration; format: in vivo; conditions: for AUC / Cmax: po, 1 mg/kg; for comparative systemic exposure to guanfacine vs guanfacine at an equimolar dose (in words): oral
Procedure: Rats were surgically prepared under isofluorane anaesthesia by attaching a silicon catheter to the portal vein then exteriorising it at the nape of the neck with a blood collection port attached.
At each sampling time serial point blood samples (approximately 0.2 mL) were taken simultaneously from the lateral tail vein cannula and the hepatic portal cannula. After collection of the final blood sample each animal was killed by cervical dislocation. Blood samples were collected at 15, 30 minutes and 1, 2, 4, 8 and 24 hours post dose.
Pharmacokinetic parameters in portal and systemic plasma were derived by non-compartmental analysis (linear/logarithmic trapezoidal) using WinNonlin (Version 4.1) software.

[4] = Prodrug stability in simulated intestinal fluid; conditions: 37° C., pH 6.8, HPLC
Procedure: (§1) The remaining concentrations of the prodrugs were then assayed by H PLC.

[5] = tested on: gastrointestinal transit of a charcoal meal in the rat; experiment: Charcoal propulsion test (gut motility) in rat; format: in vivo; conditions: oral
Procedure: The effect of a drug on gut motility can be studied by means of the charcoal propulsion test.
The method used was based on that described by Takemori et al. (J. Pharmacol. Exp. Ther. 169:39, 1969). Test treatments were administered orally 60 minutes prior to an oral dose of a 10% suspension of charcoal in 2.5% gum Arabic (2 ml/kg). Twenty minutes after dosing with charcoal, the rats were sacrificed and the entire gastrointestinal tract was removed quickly and carefully. The distance that the charcoal meal had traveled toward the caecum was measured and expressed as a percentage of the total gut length.

[6] = target: T1, human α-2A adrenoceptor (Homo sapiens, UniProt P08913); experiment: α-2A adrenoceptor binding assay ([3H] RX821002 competition, recombinant CHO cells); conditions: [3H] RX821002 (1 nM)
T1 construct: expressed in transfected cells; host or cells: CHO cells
T1 sequence (P08913 1-465): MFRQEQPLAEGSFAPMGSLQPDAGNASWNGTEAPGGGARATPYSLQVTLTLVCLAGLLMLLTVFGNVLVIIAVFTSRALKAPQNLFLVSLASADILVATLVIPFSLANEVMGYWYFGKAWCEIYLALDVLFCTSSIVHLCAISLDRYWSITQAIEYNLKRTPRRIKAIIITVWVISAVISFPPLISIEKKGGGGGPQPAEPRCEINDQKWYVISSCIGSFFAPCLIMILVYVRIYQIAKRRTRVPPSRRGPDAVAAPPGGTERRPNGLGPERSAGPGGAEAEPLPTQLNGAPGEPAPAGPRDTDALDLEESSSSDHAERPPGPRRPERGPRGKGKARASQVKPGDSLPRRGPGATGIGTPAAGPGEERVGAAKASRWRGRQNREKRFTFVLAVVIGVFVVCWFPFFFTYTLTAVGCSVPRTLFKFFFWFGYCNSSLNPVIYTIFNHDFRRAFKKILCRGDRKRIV
Procedure: The activation of this receptor is responsible for its intended therapeutic effect.
The binding assay methodology employed in this study followed that described by Langin et al. (Eur. J. Pharmacol. 167:95-104, 1989) and used human recombinant CHO cells expressing α-2 adrenoceptors. The competitive binding ligand was [3H] RX821002 (1 nM) which has a high affinity for the alpha-2A subtype.

[7] = Prodrug stability in freshly withdrawn porcine intestinal fluid; format: in vitro ADME; conditions: for Prodrug remaining at 3 h: porcine intestinal fluid pH 6.8, 37° C., in % (unit assumed)
Source text: Many of the peptidases in the intestinal lumen may not be present in the USP simulated intestinal fluid preparations previously described. […] The prodrugs evaluated were selected on the basis of adequate pharmacokinetics (see Example 8).

[8] = Prodrug stability in simulated gastric fluid; conditions: 37° C., pH 1.1, HPLC
Procedure: as §1

[9] = hepatic portal vein plasma, read-out: Hepatic portal vein Prodrug AUC
[10] = hepatic portal vein plasma, read-out: Hepatic portal vein Prodrug Cmax
[11] = tail vein (systemic) plasma, read-out: Tail vein Prodrug AUC
[12] = tail vein (systemic) plasma, read-out: Tail vein Prodrug Cmax
[13] = Study 2, dose 0.1 mg/kg guanfacine free base equivalents
[14] = Study 2, dose 0.3 mg/kg guanfacine free base equivalents
[15] = Study 2, dose 0.5 mg/kg guanfacine free base equivalents

SMILES	prodrug levels in plasma (in words) [2]	AUC [3, 9] [ng·h/mL]	Cmax [3, 10] [ng/mL]	AUC [3, 11] [ng·h/mL]	Cmax [3, 12] [ng/mL]	% prodrug remaining following incubation for 2 h in simulated intestinal fluid pH 6.8 [4] [%]	Ki [6] [nM]	stability in porcine intestinal fluid (in words) [7]	Prodrug remaining at 3 h [7]	% prodrug remaining following incubation for 1 h in simulated gastric fluid pH 1.1 [8] [%]	other results
CC(C)[C@H](N)C(=O)NCCC(=O)NC(=N)NC(=O)Cc1c(Cl)cccc1Cl [Compound 2, Guanfacine (β-Alanine-(S)-Valine) Amide]	detectable prodrug levels in plasma	19.2	46.4	2.67	4.2	89	1200	intermediate stability	77.8	75	mean Cmax prodrug ([1]; Fasted, 0.5 mg/kg guanfacine equivalent dose, oral): BLQ; Cmax ([1]; male, cynomolgus monkey, plasma, po, 0.5 mg/kg, read-out: mean Cmax prodrug): 2.15 ng/mL; % change in GI transit vs vehicle ([5]; Study 1, dose 0.1 mg/kg guanfacine free base equivalents): +3%; % change in GI transit vs vehicle ([5]; Study 1, dose 0.3 mg/kg guanfacine free base equivalents): −30%; % change in GI transit vs vehicle ([5]; Study 1, dose 1 mg/kg guanfacine free base equivalents): −42%; % change in GI transit vs vehicle ([5]; Study 1, dose 3 mg/kg guanfacine free base equivalents): −42%; % change in GI transit vs vehicle ([5]; Study 1, dose 5 mg/kg guanfacine free base equivalents): −42%
CN(CC(=O)O)C(=O)NC(=N)NC(=O)Cc1c(Cl)cccc1Cl [Compound 9, Guanfacine Sarcosine Urea]	high prodrug levels					105				101	
CC(C)[C@@H](N)C(=O)NCCC(=O)NC(=N)NC(=O)Cc1c(Cl)cccc1Cl [Compound 11, Guanfacine (β-Alanine-(R)-Valine) Amide]	detectable prodrug levels in plasma					104		high stability	91.3 ± 2.6	79	
CC(C)[C@H](N)C(=O)N[C@@H](COC(=O)NC(=N)NC(=O)Cc1c(Cl)cccc1Cl)C(=O)O [Compound 17, Guanfacine ((S)-Serine-(S)-Valine) Carbamate]	total absence of prodrug in the plasma					78		very unstable		93	
O=C(O)CC[C@@H]1N=C(NC(=O)Cc2c(Cl)cccc2Cl)NC1=O [Compound 37, Guanfacine-(S)-Glutamic Cyclic Adduct]	high prodrug levels					110				58	
C[C@@H](N)C(=O)N[C@@H](CCC(=O)NC(=N)NC(=O)Cc1c(Cl)cccc1Cl)C(=O)O [Compound 41, Guanfacine ((S)-γ-Glutamate-(R)-Alanine) Amide]	detectable prodrug levels in plasma	43.5	31.9	8	6.14	83	1700	high stability	89.70 ± 3.60	70	
N=C(NC(=O)Cc1c(Cl)cccc1Cl)NC(=O)c1ccc(N)cc1 [Compound 52, Guanfacine PABA Amide]						97		high stability	87.77 ± 5.80	84	
N=C(NC(=O)Cc1c(Cl)cccc1Cl)NC(=O)OCCNC(=O)CC[C@H](N)C(=O)O [Compound 58, Guanfacine (Ethanolamine-(S)-γ-Glutamate) Carbamate]						99			81.26 ± 4.57	96	
CNCC(=O)N[C@@H](COC(=O)NC(=N)NC(=O)Cc1c(Cl)cccc1Cl)C(=O)O [Compound 61, Guanfacine ((S)-Serine-Sarcosine) Carbamate]	detectable prodrug levels in plasma	51.8	43.4	5.09	7.07	96	10000	intermediate stability	66.86 ± 2.10	92	comparative systemic exposure to guanfacine vs guanfacine at an equimolar dose (in words) [3]: similar; % change in GI transit vs vehicle [5, 13]: −8%; % change in GI transit vs vehicle [5, 14]: −25%; % change in GI transit vs vehicle [5, 15]: −31%
CNCC(=O)N[C@H](C(=O)O)[C@@H](C)OC(=O)NC(=N)NC(=O)Cc1c(Cl)cccc1Cl [Compound 63, Guanfacine ((R,S)-Threonine-Sarcosine) Carbamate]	detectable prodrug levels in plasma	66.5	23.7	20.2	9.37	99		high stability	95.04 ± 9.25	86	comparative systemic exposure to guanfacine vs guanfacine at an equimolar dose (in words) [3]: similar; % change in GI transit vs vehicle [5, 13]: 0%; % change in GI transit vs vehicle [5, 14]: −13%; % change in GI transit vs vehicle [5, 15]: −49%
